From PubChem BioAssay (NCI)
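Where inhibition never reached the appropriate level, the endpoint shown equals the highest concentration tested. Otherwise, values were interpolated linearly from a five-concentration, 48-hour dose response in 96-well plates. TGI denotes the concentration required for complete inhibition of growth.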

What was measured:
Assay in all cases: NCI tumour cell line growth inhibition, 48 h
[1] = system: RXF 393 renal
[2] = system: OVCAR-3 ovarian
[3] = system: NCI/ADR-RES ovarian
[4] = system: MALME-3M melanoma
[5] = system: P388 leukemia
[6] = system: SK-MEL-28 melanoma
[7] = system: XF 498 CNS
[8] = system: HT29 colon
[9] = system: IGROV1 ovarian
[10] = system: COLO 205 colon
[11] = system: HOP-18 NSCLC
[12] = system: NCI-H23 lung
[13] = system: OVCAR-5 ovarian
[14] = system: HCT-116 colon
[15] = system: DMS 273 small cell lung
[16] = system: EKVX NSCLC
[17] = system: SF-295 CNS
[18] = system: P388/ADR leukemia
[19] = system: SN12K1 renal
[20] = system: UACC-257 melanoma
[21] = system: CAKI-1 renal
[22] = system: CCRF-CEM leukemia
[23] = system: LOX IMVI melanoma
[24] = system: OVCAR-4 ovarian
[25] = system: A498 renal
[26] = system: SNB-75 CNS
[27] = system: A549 NSCLC
[28] = system: SK-MEL-2 melanoma
[29] = system: MCF7 breast
[30] = system: HOP-92 NSCLC
[31] = system: SF-268 CNS
[32] = system: UO-31 renal
[33] = system: M19-MEL melanoma
[34] = system: NCI-H460 lung
[35] = system: SNB-19 CNS
[36] = system: U251 CNS
[37] = system: HOP-62 NSCLC
[38] = system: SN12C renal
[39] = system: KM20L2 colon
[40] = system: SF-539 CNS
[41] = system: NCI-H226 lung
[42] = system: OVCAR-8 ovarian
[43] = system: KM12 colon
[44] = system: HCC-2998 colon
[45] = system: DLD-1 colon
[46] = system: K-562 leukemia
[47] = system: SK-MEL-5 melanoma
[48] = system: RPMI-8226 leukemia
[49] = system: SNB-78 CNS
[50] = system: SK-OV-3 ovarian
[51] = system: HL-60(TB) leukemia
[52] = system: UACC-62 melanoma
[53] = system: SW-620 colon
[54] = system: NCI-H522 lung
[55] = system: HCT-15 colon

CCCCC1(C2c3ccccc3Oc3ccccc32)C(=O)N(c2ccccc2)N(c2ccccc2)C1=O
TGI [1]: > 100 µM
TGI [2]: > 100 µM
TGI [3]: > 100 µM
TGI [4]: > 100 µM
TGI [5]: 45.2 µM
TGI [6]: > 100 µM
TGI [7]: > 100 µM
TGI [8]: > 100 µM
TGI [9]: > 100 µM
TGI [10]: > 100 µM
TGI [11]: > 100 µM
TGI [12]: > 100 µM
TGI [13]: > 100 µM
TGI [14]: > 100 µM
TGI [15]: > 100 µM
TGI [16]: > 100 µM
TGI [17]: > 100 µM
TGI [18]: > 100 µM
TGI [19]: > 100 µM
TGI [20]: 99 µM
TGI [21]: > 29.6 µM
TGI [22]: > 100 µM
TGI [23]: > 100 µM
TGI [24]: > 100 µM
TGI [25]: > 100 µM
TGI [26]: > 100 µM
TGI [27]: > 100 µM
TGI [28]: > 100 µM
TGI [29]: > 100 µM
TGI [30]: > 100 µM
TGI [31]: > 100 µM
TGI [32]: > 100 µM
TGI [33]: > 100 µM
TGI [34]: > 100 µM
TGI [35]: > 100 µM
TGI [36]: > 100 µM
TGI [37]: > 100 µM
TGI [38]: > 100 µM
TGI [39]: > 100 µM
TGI [40]: > 100 µM
TGI [41]: > 100 µM
TGI [42]: > 100 µM
TGI [43]: > 100 µM
TGI [44]: > 94.5 µM
TGI [45]: > 100 µM
TGI [46]: > 100 µM
TGI [47]: > 100 µM
TGI [48]: > 100 µM
TGI [49]: > 88.5 µM
TGI [50]: > 100 µM
TGI [51]: > 100 µM
TGI [52]: > 100 µM
TGI [53]: > 100 µM
TGI [54]: 13.1 µM
TGI [55]: > 100 µM
